The record followed here is patent publication US11591341B2 (ALIGOS THERAPEUTICS, INC., priority 2019, dated 2023).

As a reminder, the EC50 is the midpoint of the concentration-response curve.

Where only a bound is given, the exact number is not on record here.

The test system of one assay is HBV. Briefly: HBV-DNA Antiviral Assay Using HepG2.117 Cells (intracellular HBV DNA by qPCR). It counts as cell-based, hepatitis B virus (genotype D). Particulars: HBV DNA inhibition, HepG2.117 cells, intracellular HBV DNA by qPCR (Table 4); read-out: EC50. The method in brief: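 HepG2.117 cells (genotype D HBV, Tet-off) were induced by doxycycline withdrawal and treated for 3 days with 9 concentrations in 4-fold dilution, 2% DMSO final. Intracellular HBV DNA was measured by qPCR against a standard curve, with ATPlite viability read in parallel. EC50, EC90 and CC50 came from fits against the DMSO control.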
Background: Quantitative PCR measures a nucleic acid by following its amplification.
Turning to `COc1ccc(-n2c(-c3ncccc3Cc3ccccc3)c3n(c2=O)CCN(C(=O)c2ccc(Br)c(Cl)c2)C3)cc1` [Example 308, 1-(3-benzyl-2-pyridyl)-7-(4-bromo-3-chloro-benzoyl)-2-(4-methoxyphenyl)-6,8-dihdyro-5H-imidazo[1,5-a]pyrazin-3-one], the EC50 fell in the range of 500 to 5000 nM.

Staying with this assay, now noted: Hepatitis B virus, HepG2.117.
Consider `O=C(NCc1ccccc1-n1cncn1)c1c2n(c(=O)n1-c1ccc(OCC(F)(F)F)cc1)CCN(C(=O)c1ccc(Br)c(Cl)c1)C2` [Example 304, 7-(4-bromo-3-chloro-benzoyl)-3-oxo-N-[[2-(1,2,4-triazol-1-yl)phenyl]methyl]-2-[4-(2,2,2-trifluoroethoxy)phenyl]-6,8-dihydro-5H-imidazo[1,5-a]pyrazine-1-carboxamide], for which the EC50 was < 100 nM. The compound `O=C(NCc1c(F)cccc1Cl)c1c2n(c(=O)n1-c1ccc(OC3CC3)cc1)CCN(C(=O)c1ccc(Br)c(Cl)c1)C2` [Example 305, 7-(4-bromo-3-chloro-benzoyl)-N-[(2-chloro-6-fluoro-phenyl)methyl]-2-[4-(cyclopropoxy)phenyl]-3-oxo-6,8-dihydro-5H-imidazo[1,5-a]pyrazine-1-carboxamide] gave an EC50 of 100 to 500 nM. Same read-out and setting: in the case of `O=C(NCc1c(F)cccc1F)c1c2n(c(=O)n1-c1ccc(OC3CC3)cc1)CCN(C(=O)c1ccc(Br)c(Cl)c1)C2` [Example 306, 7-(4-bromo-3-chloro-benzoyl)-2-[4-(cyclopropoxy)phenyl]-N-[(2,6-difluorophenyl)methyl]-3-oxo-6,8-dihydro-5H-imidazo[1,5-a]pyrazine-1-carboxamide] it was 100 to 500 nM. For `N#Cc1ccc(CNC(=O)c2c3n(c(=O)n2-c2ccc(OC4CC4)cc2)CCN(C(=O)c2ccc(Br)c(Cl)c2)C3)c(F)c1` [Example 307], the EC50 fell in the range of 500 to 5000 nM. Same read-out and setting: the same measure for `CNc1ccc(-n2c(C(=O)NCc3ccccc3)c3n(c2=O)CCN(C(=O)c2ccc(Br)c(Cl)c2)C3)cc1` [Example 311, N-benzyl-7-(4-bromo-3-chloro-benzoyl)-2-[4-(methylamino)phenyl]-3-oxo-6,8-dihydro-5H-imidazo[1,5-a]pyrazine-1-carboxamide]: 100 to 500 nM; for `O=C(NCc1ccccc1)c1c2n(c(=O)n1-c1ccc(-n3ccnc3)cc1)CCN(C(=O)c1ccc(Br)c(Cl)c1)C2` [Example 312, N-benzyl-7-(4-bromo-3-chloro-benzoyl)-2-(4-imidazol-1-ylphenyl)-3-oxo-6,8-dihydro-5H-imidazo[1,5-a]pyrazine-1-carboxamide]: 500 to 5000 nM; for `N#CCOc1ccc(CNC(=O)c2c3n(c(=O)n2-c2ccc(OC4CC4)cc2)CCN(C(=O)c2ccc(Br)c(Cl)c2)C3)c(F)c1` [Example 323, 7-(4-bromo-3-chloro-benzoyl)-N-[[4-(cyanomethoxy)-2-fluoro-phenyl]methyl]-2-[4-(cyclopropoxy)phenyl]-3-oxo-6,8-dihydro-5H-imidazo[1,5-a]pyrazine-1-carboxamide]: 100 to 500 nM. `NC(=O)COc1ccc(CNC(=O)c2c3n(c(=O)n2-c2ccc(OC4CC4)cc2)CCN(C(=O)c2ccc(Br)c(Cl)c2)C3)c(F)c1` [Example 324, N-[[4-(2-amino-2-oxo-ethoxy)-2-fluoro-phenyl]methyl]-7-(4-bromo-3-chloro-benzoyl)-2-[4-(cyclopropoxy)phenyl]-3-oxo-6,8-dihydro-5H-imidazo[1,5-a]pyrazine-1-carboxamide] returned an EC50 of 100 to 500 nM. Still for that read-out and setting: the same measure for `CC(C)Oc1ccc(-n2c(-c3ncc(Cc4ccccc4)s3)c3n(c2=O)CCN(C(=O)c2ccc(Br)c(Cl)c2)C3)cc1` [Example 325, 1-(5-benzylthiazol-2-yl)-7-(4-bromo-3-chlorobenzoyl)-2-(4-isopropoxyphenyl)-5,6,7,8-tetrahydroimidazo[1,5-a]pyrazin-3(2H)-one]: > 5000 nM.
